Test results taken from US7273846B2, “Selective melanin-concentrating hormone type-1 receptor agonists” (priority 2002, dated 2007).
Read-outs that look alike come from different tables or passages of the source. Residues, ends and D or L forms follow the SMILES beside them.

How the values were obtained:
MCH-1R [1] = target: T1, MCH-1R (Homo sapiens, UniProt Q99705); experiment: Aequorin bioluminescence functional assay, 293AEQ17/MCH-1R cells; type: cell-based; design: expressed in transfected cells; settings: for MCH-1R Activation %: human MCH = 100, activation at 10 μM concentration
T1 sequence (Q99705 whole entry): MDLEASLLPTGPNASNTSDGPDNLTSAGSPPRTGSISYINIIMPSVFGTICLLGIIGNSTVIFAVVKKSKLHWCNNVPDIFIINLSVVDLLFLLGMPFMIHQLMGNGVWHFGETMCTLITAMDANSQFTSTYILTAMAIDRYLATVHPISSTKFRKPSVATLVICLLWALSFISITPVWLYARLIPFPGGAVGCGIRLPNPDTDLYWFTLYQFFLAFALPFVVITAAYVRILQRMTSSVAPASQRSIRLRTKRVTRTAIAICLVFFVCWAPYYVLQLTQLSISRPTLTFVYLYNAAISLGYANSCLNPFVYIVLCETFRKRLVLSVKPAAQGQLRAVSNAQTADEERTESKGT
Description: (§1) The aequorin bioluminescence assay is a reliable test for identifying G-protein-coupled receptors that couple through the G protein subunit family consisting of Gq and G11. Gq and G11 coupling leads to the activation of phospholipase C, mobilization of intracellular calcium, and activation of protein kinase C.
Stable cell lines expressing either the MCH-1R or the MCH-2R and the aequorin reporter protein were used. The assay was performed using a Luminoskan RT luminometer (Labsystems Inc., Gaithersburg, Md.) controlled by custom software written for a Macintosh PowerPC 6100.
(§2) The cells were harvested, washed once in ECB medium, and resuspended to 500,000 cells/mL. 100 μL of cell suspension (corresponding to 5×10^4 cells) was then injected into the test plate containing the hMCH peptides, and the integrated light emission was recorded over 30 seconds, in 0.5-s units. 20 μL of lysis buffer (0.1% final Triton X-100 concentration) was then injected and the integrated light emission recorded over 10 seconds, in 0.5-s units. The “fractional response” values for each well were calculated by taking the ratio of the integrated response to the initial challenge to the total integrated luminescence including the Triton X-100 lysis response.

MCH-2R = MCH-2R (Homo sapiens, UniProt Q969V1); experiment: Aequorin bioluminescence functional assay, 293AEQ17/MCH-2R cells; type: cell-based; design: expressed in transfected cells; MCH-2R Activation %: concentration or dose not given beside the values; settings: for MCH-2R Activation %: human MCH = 100; for EC50: aequorin, 293AEQ17/MCH-2R cells
Sequence of MCH-2R (Q969V1 whole entry): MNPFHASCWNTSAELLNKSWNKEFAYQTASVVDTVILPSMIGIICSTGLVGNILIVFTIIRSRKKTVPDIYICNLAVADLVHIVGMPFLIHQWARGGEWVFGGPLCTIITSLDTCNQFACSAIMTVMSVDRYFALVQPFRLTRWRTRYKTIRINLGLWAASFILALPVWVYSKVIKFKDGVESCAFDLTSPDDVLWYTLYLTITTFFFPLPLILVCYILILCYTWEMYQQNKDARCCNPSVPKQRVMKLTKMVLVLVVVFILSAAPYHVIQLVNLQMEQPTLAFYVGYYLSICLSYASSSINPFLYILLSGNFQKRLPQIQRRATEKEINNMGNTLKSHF
Description: as §1
Stable cell lines expressing either the MCH-1R or the MCH-2R and the aequorin reporter protein were used.
as §2

MCH-1R [2] = target: T1, MCH-1R
Description: For transient expression, COS-7 cells were cultured in Dulbecco's modified Eagle medium (Gibco BRL, Rockville, Md.) with 10% heat inactivated fetal calf serum.
A suspension of 7×10^6 COS-7 cells were transfected with 20 μg of pCI-neo/MCH-2R plasmid by electroporation and cells were harvested after 60-72 hours. Membranes were prepared from transient and stable transfectants by hypotonic lysis, frozen in liquid nitrogen, and stored at −80° C.
Assays were optimized with respect to membrane preparations: for CHO/MCH-1R membranes, 1 μg of membranes per well yielded a>6× specific binding window and for COS or CHO MCH-2R membranes, 8 μg of membrane protein yielded a window of about 3×.
Specific binding is defined as the difference between total binding and non-specific binding conducted in the presence of 500 nM unlabeled hMCH. […] After equilibrating at room temperature for 3 hours, the plates were read in a TopCount (Packard, Meriden, Conn.). IC50 calculations were performed using Prism 3.0 (GraphPad. Software, San Diego, Calif.). The IC50 values were measured in three different experiments.

[3] = aequorin, 293AEQ17/MCH-1R cells, read-out: MCH-1R EC50

## CSCC[C@@H]1NC(=O)[C@@H](NC(=O)[C@H](CCCNC(=N)N)NC(=O)[C@H](CC(C)C)NC(=O)[C@H](CCSC)NC(=O)[C@H](CC(=O)O)NC(=O)[C@H](Cc2ccccc2)NC(=O)[C@@H](N)CC(=O)O)CSSC[C@@H](C(=O)N[C@@H](Cc2c[nH]c3ccccc23)C(=O)N[C@@H](CCC(N)=O)C(=O)N[C@H](C(=O)O)C(C)C)NC(=O)[C@@H]2CCCN2C(=O)[C@H](CCCNC(=N)N)NC(=O)[C@H](Cc2ccc(O)cc2)NC(=O)[C@H](C(C)C)NC(=O)[C@H](CCCNC(=N)N)NC(=O)CNC(=O)[C@H](CC(C)C)NC1=O [SEQ. ID. NO. 1, human MCH, reference compound]
MCH-1R [1]
  MCH-1R Activation %: 100%
MCH-2R
  MCH-2R Activation %: 100%

## CSCC[C@@H]1NC(=O)[C@@H](NC(=O)[C@H](CCCNC(=N)N)NC(C)=O)CSSC[C@@H](C(N)=O)NC(=O)[C@@H]2CCCN2C(=O)[C@H](CCCNC(=N)N)NC(=O)[C@H](Cc2ccc(O)cc2)NC(=O)[C@H](C(C)C)NC(=O)[C@H](CCCNC(=N)N)NC(=O)CNC(=O)[C@H](CC(C)C)NC1=O [SEQ. ID. NO. 2, Ac-hMCH(6-16)-NH2, reference compound]
MCH-1R [1]
  MCH-1R Activation %: 99%

## CSCC[C@@H]1NC(=O)[C@@H](NC(=O)[C@@H](C)NC(C)=O)CSSC[C@@H](C(N)=O)NC(=O)[C@@H]2CCCN2C(=O)[C@H](CCCNC(=N)N)NC(=O)[C@H](Cc2ccc(O)cc2)NC(=O)[C@H](C(C)C)NC(=O)[C@H](CCCNC(=N)N)NC(=O)CNC(=O)[C@H](CC(C)C)NC1=O [SEQ. ID. NO. 6]
MCH-1R [2]
  Selectivity 2/1 (MCH-2R/MCH-1R IC50 binding ratio): 3500
MCH-1R [1]
  Selectivity 2/1 (MCH-2R/MCH-1R EC50 activity ratio): 30
  MCH-1R Activation %: 109%
MCH-1R [1]; [3]
  EC50: 160 nM
MCH-2R
  MCH-2R Activation %: 51%

## CSCC[C@@H]1NC(=O)[C@@H](NC(=O)[C@@H](Cc2ccccc2)NC(C)=O)CSSC[C@@H](C(N)=O)NC(=O)[C@@H]2CCCN2C(=O)[C@H](CCCNC(=N)N)NC(=O)[C@H](Cc2ccc(O)cc2)NC(=O)[C@H](C(C)C)NC(=O)[C@H](CCCNC(=N)N)NC(=O)CNC(=O)[C@H](CC(C)C)NC1=O [SEQ. ID. NO. 9]
MCH-1R [2]
  Selectivity 2/1 (MCH-2R/MCH-1R IC50 binding ratio): 1380
MCH-1R [1]
  Selectivity 2/1 (MCH-2R/MCH-1R EC50 activity ratio): 7
  MCH-1R Activation %: 117%
MCH-1R [1]; [3]
  EC50: 66 nM
MCH-2R
  MCH-2R Activation %: 79%

## CSCC[C@@H]1NC(=O)[C@@H](NC(=O)[C@@H](CCCNC(N)=O)NC(C)=O)CSSC[C@@H](C(N)=O)NC(=O)[C@@H]2CCCN2C(=O)[C@H](CCCNC(=N)N)NC(=O)[C@H](Cc2ccc(O)cc2)NC(=O)[C@H](C(C)C)NC(=O)[C@H](CCCNC(=N)N)NC(=O)CNC(=O)[C@H](CC(C)C)NC1=O [SEQ. ID. NO. 14]
MCH-1R [2]
  Selectivity 2/1 (MCH-2R/MCH-1R IC50 binding ratio): 43
MCH-1R [2]; relative to the D-Arg^6 compound
  fold lower binding affinity for hMCH-1R: about 30 fold
MCH-1R [1]
  agonism at hMCH-1R in words: lower than those of the L-Arg^6 compound
  Selectivity 2/1 (MCH-2R/MCH-1R EC50 activity ratio): 0.3
  MCH-1R Activation %: 91%
MCH-1R [1]; [3]
  EC50: 920 nM
MCH-2R
  agonism at hMCH-2R in words: lower than those of the L-Arg^6 compound
  EC50: 310 nM
  MCH-2R Activation %: 68%

## CSCC[C@@H]1NC(=O)[C@@H](NC(=O)[C@H](CCCNC(=N)N)NC(C)=O)CSSC[C@@H](C(N)=O)NC(=O)[C@@H]2CCCN2C(=O)[C@H](CCCNC(=N)N)NC(=O)[C@H](Cc2ccc(O)cc2)NC(=O)[C@H](C(C)C)NC(=O)[C@H](CCCNC(=N)N)NC(=O)[C@H](C)NC(=O)[C@H](CC(C)C)NC1=O [SEQ. ID. NO. 16] (HELM PEPTIDE1{[ac].R.C.M.L.A.R.V.Y.R.P.C.[am]}$PEPTIDE1,PEPTIDE1,3:R3-12:R3$$$V2.0)
MCH-1R [2]
  Selectivity 2/1 (MCH-2R/MCH-1R IC50 binding ratio): 16
MCH-1R [1]
  Selectivity 2/1 (MCH-2R/MCH-1R EC50 activity ratio): 0.29
  MCH-1R Activation %: 121%
MCH-1R [1]; [3]
  EC50: 51 nM
MCH-2R
  MCH-2R Activation %: 102%

## CSCC[C@@H]1NC(=O)[C@@H](NC(=O)[C@H](CCCNC(=N)N)NC(C)=O)CSSC[C@@H](C(N)=O)NC(=O)[C@@H]2CCCN2C(=O)[C@H](CCCNC(=N)N)NC(=O)[C@H](Cc2ccc(O)cc2)NC(=O)[C@H](C(C)C)NC(=O)[C@H](CCCNC(=N)N)NC(=O)[C@H](CC(C)C)NC(=O)[C@H](CC(C)C)NC1=O [SEQ. ID. NO. 17]
MCH-1R [2]
  Selectivity 2/1 (MCH-2R/MCH-1R IC50 binding ratio): 1900
MCH-1R [1]
  Selectivity 2/1 (MCH-2R/MCH-1R EC50 activity ratio): 1.8
  MCH-1R Activation %: 123%
MCH-2R
  MCH-2R Activation %: 74%

## CSCC[C@@H]1NC(=O)[C@@H](NC(=O)[C@H](CCCNC(=N)N)NC(C)=O)CSSC[C@@H](C(N)=O)NC(=O)[C@@H]2CCCN2C(=O)[C@H](CCCNC(=N)N)NC(=O)[C@H](Cc2ccc(O)cc2)NC(=O)[C@H](C(C)C)NC(=O)[C@H](CCCNC(=N)N)NC(=O)[C@H](Cc2ccc3ccccc3c2)NC(=O)[C@H](CC(C)C)NC1=O [SEQ. ID. NO. 21]
MCH-1R [2]
  Selectivity 2/1 (MCH-2R/MCH-1R IC50 binding ratio): 14
MCH-1R [1]; [3]
  EC50: > 10000 nM
MCH-1R [1]
  MCH-1R Activation %: 7%
MCH-2R
  MCH-2R Activation %: 105%

## CSCC[C@@H]1NC(=O)[C@@H](NC(=O)[C@H](CCCNC(=N)N)NC(C)=O)CSSC[C@@H](C(N)=O)NC(=O)[C@@H]2CCCN2C(=O)[C@H](CCCNC(=N)N)NC(=O)[C@H](Cc2ccc(O)cc2)NC(=O)[C@H](C(C)C)NC(=O)[C@H](CCCNC(=N)N)NC(=O)[C@H](CCCNC(=N)N)NC(=O)[C@H](CC(C)C)NC1=O [SEQ. ID. NO. 23] (HELM PEPTIDE1{[ac].R.C.M.L.R.R.V.Y.R.P.C.[am]}$PEPTIDE1,PEPTIDE1,3:R3-12:R3$$$V2.0)
MCH-1R [2]
  Selectivity 2/1 (MCH-2R/MCH-1R IC50 binding ratio): 0.7
MCH-1R [1]; [3]
  EC50: > 10000 nM
MCH-1R [1]
  MCH-1R Activation %: 7%
MCH-2R
  MCH-2R Activation %: 38%

## CSCC[C@@H]1NC(=O)[C@@H](NC(=O)[C@H](CCCNC(=N)N)NC(C)=O)CSSC[C@@H](C(N)=O)NC(=O)[C@@H]2CCCN2C(=O)[C@H](CCCNC(=N)N)NC(=O)[C@H](Cc2ccc(O)cc2)NC(=O)[C@H](C(C)C)NC(=O)[C@H](CCCNC(=N)N)NC(=O)[C@H](CCCNC(N)=O)NC(=O)[C@H](CC(C)C)NC1=O [SEQ. ID. NO. 27]
MCH-1R [2]
  Selectivity 2/1 (MCH-2R/MCH-1R IC50 binding ratio): 42
MCH-1R [1]
  Selectivity 2/1 (MCH-2R/MCH-1R EC50 activity ratio): 0.3
  MCH-1R Activation %: 91%
MCH-1R [1]; [3]
  EC50: 920 nM
MCH-2R
  MCH-2R Activation %: 68%

## CSCC[C@@H]1NC(=O)[C@@H](NC(=O)[C@H](CCCNC(=N)N)NC(C)=O)CSSC[C@@H](C(N)=O)NC(=O)[C@@H]2CCCN2C(=O)[C@H](CCCNC(=N)N)NC(=O)[C@H](Cc2ccc(O)cc2)NC(=O)[C@H](C(C)C)NC(=O)[C@H](CCCNC(=N)N)NC(=O)[C@H](CCC(=O)O)NC(=O)[C@H](CC(C)C)NC1=O [SEQ. ID. NO. 28]
MCH-1R [1]
  EC50: > 10000 nM
  agonism at hMCH-1R in words: practically inactive
  MCH-1R Activation %: 21%
MCH-2R
  agonism at hMCH-2R in words: practically inactive
  MCH-2R Activation %: 22%

## CSCC[C@@H]1NC(=O)[C@@H](NC(=O)[C@@H](CCCNC(=N)N)NC(C)=O)CSSC[C@@H](C(N)=O)NC(=O)[C@@H]2CCCN2C(=O)[C@H](CCCNC(=N)N)NC(=O)[C@H](Cc2ccc(O)cc2)NC(=O)[C@H](C(C)C)NC(=O)[C@H](CCCNC(=N)N)NC(=O)[C@H](CCC(N)=O)NC(=O)[C@H](CC(C)C)NC1=O [SEQ. ID. NO. 30] (HELM PEPTIDE1{[ac].[dR].C.M.L.Q.R.V.Y.R.P.C.[am]}$PEPTIDE1,PEPTIDE1,3:R3-12:R3$$$V2.0)
MCH-1R [2]
  Selectivity 2/1 (MCH-2R/MCH-1R IC50 binding ratio): 230
MCH-1R [1]
  agonism at hMCH-1R in words: activated hMCH-1R almost as efficiently as Ac-hMCH(6-16)NH2
  fold more selective as agonist for hMCH-1R than hMCH-2R: about 150 fold
  MCH-1R Activation %: 74%
MCH-2R
  EC50: > 10000 nM
  MCH-2R Activation %: 11%

## CCCC[C@@H]1NC(=O)[C@@H](NC(=O)[C@H](N)CCCNC(=N)N)CSSC[C@@H](C(N)=O)NC(=O)[C@@H]2CCCN2C(=O)[C@H](CCCNC(=N)N)NC(=O)[C@H](Cc2ccc(O)cc2)NC(=O)[C@H](C(C)C)NC(=O)[C@H](CCCNC(=N)N)NC(=O)[C@H](CC(N)=O)NC(=O)[C@H](CC(C)C)NC1=O [SEQ. ID. NO. 32] (HELM PEPTIDE1{[dR].C.[Nle].L.N.R.V.Y.R.P.C.[am]}$PEPTIDE1,PEPTIDE1,2:R3-11:R3$$$V2.0)
MCH-1R [1]
  agonism at hMCH-1R in words: potent and selective hMCH-1R agonists

## CSCC[C@@H]1NC(=O)[C@@H](NC(=O)[C@@H](CCCNC(=N)N)NC(C)=O)CSSC[C@@H](C(N)=O)NC(=O)[C@@H]2CCCN2C(=O)[C@H](C)NC(=O)[C@H](Cc2ccc(O)cc2)NC(=O)[C@H](C(C)C)NC(=O)[C@H](CCCNC(=N)N)NC(=O)[C@H](CC(N)=O)NC(=O)[C@H](CC(C)C)NC1=O [SEQ. ID. NO. 33] (HELM PEPTIDE1{[ac].[dR].C.M.L.N.R.V.Y.A.P.C.[am]}$PEPTIDE1,PEPTIDE1,3:R3-12:R3$$$V2.0)
MCH-1R [1]
  fold more selective as agonist for hMCH-1R than hMCH-2R: about 50 fold
  MCH-1R Activation %: 109%
MCH-1R [1]; [3]
  EC50: 260 nM
MCH-1R [1]; relative to Ac-hMCH(6-16)-NH2
  fold lower agonist activity at hMCH-1R: 5 fold
MCH-2R
  EC50: > 10000 nM
  MCH-2R Activation %: 17%
